Test results reported in US8497271B2, “Modulators of G protein-coupled receptor 88” (Bristol-Myers Squibb Company, priority 2009, dated 2013).
Read-outs that look alike come from different tables or passages of the source.

Biological target: G protein-coupled receptor 88 (Homo sapiens, UniProt Q9GZN0)
Test: EC50 of select compounds as GPR88 modulators (Table 2; GTPγS assay and cAMP HTRF assay are both described, and the one used is not stated)
Format: cell-based
Settings: read-out: Range (EC50)
Procedure: 96 well GTPγS assay plates were purchased from Perkin Elmer. Wheat Germ Agglutinin PVT SPA beads and ^35S-GTPγS were purchased from Amersham GDP, GTPγS and all buffer reagents were from Sigma. 384 well white NBS plates were purchased from corning. Pertussis toxin was purchased from Calbiochem. All cell culture reagents were purchased from Invitrogen. Forskolin was purchased from Sigma. The cAMP HTRF kit was purchased fron Cisbio International.
The GTPγS assay buffer consisted of 10 mM MgCl2, 180 mM NaCl, 200 uM GDP, 0.167 mg/ml DTT, 1 mM EGTA and 20 mM HEPES pH7.4. This buffer was used for dilution of membranes, beads, and ^35S GTPγS components. To each well of the 96 well assay plate 48 ul assay buffer, 2 ul of 100× compound, 50 ul membrane solution (0.2 ug/ul), 50 ul ^35S GTPγS solution (0.8 nM) and 50 ul of SPA beads (10 mg/ml). Non-specific binding was determined by the addition of cold GTPγS to control wells. The plates were sealed with clear sealing tape and incubated at room temperature for 1 hour. GTPγS activity was detected using a Wallac Micro-Beta Trilux liquid scintillation counter. Non-specific binding was determined using 10 uM cold GTPγS.
The cAMP HTRF assay is modified from the Cisbio International kit procedure 62AM4PEJ. Assay plates were prepared by stamping 0.1 ul of 100× compound stock solutions diluted in DMSO or DMSO alone into 384 well NBS plates. The cAMP HTRF assay was performed using cells in suspension. The cAMP HTRF assay buffer consisted of Hank's Balanced Salt Solution (HBSS), 2 mM CaCl2, 5 mM MgCl2, 20 mM HEPES and 1 mM 3-isobutyl-1-methylxanthine (IBMX) (added fresh at the time of assay). For pertussis toxin treatment pertussis toxin (100 ng/ml) was added to culture medium for 16 hours prior to assay. Confluent cells were disrupted with cell dissociation buffer count cells then centrifuged at 1000×g for minutes. The cell pellet was resuspended in assay buffer alone for basal cAMP measurements or with 0.75 uM forskolin (added immediately prior to addition to wells) for addition to all other wells. Using a Multidrop 384 (Lab systems) 10 ul of cell suspension was added to each well containing compound or DMSO. The plates were incubated at room temperature for 30 minutes covered. During this time the cAMP standard curve was prepared as per manufacturer's instruction. At the end of the incubation 10 ul of anti-cAMP cryptate and 10 ul cAMP-XL, diluted in manufacturer's lysis buffer, were added to each well. The plated were incubated at room temperature for 60 minutes covered then read on an Envision plate reader (Perkin Elmer) and the 665 nm/620 nm fluorescence ratio determined Fluorescence ratio values were converted to molar cAMP concentrations from the standard curve using the GraphPad Prism program.

Chain of G protein-coupled receptor 88 (Q9GZN0 whole entry, species assumed): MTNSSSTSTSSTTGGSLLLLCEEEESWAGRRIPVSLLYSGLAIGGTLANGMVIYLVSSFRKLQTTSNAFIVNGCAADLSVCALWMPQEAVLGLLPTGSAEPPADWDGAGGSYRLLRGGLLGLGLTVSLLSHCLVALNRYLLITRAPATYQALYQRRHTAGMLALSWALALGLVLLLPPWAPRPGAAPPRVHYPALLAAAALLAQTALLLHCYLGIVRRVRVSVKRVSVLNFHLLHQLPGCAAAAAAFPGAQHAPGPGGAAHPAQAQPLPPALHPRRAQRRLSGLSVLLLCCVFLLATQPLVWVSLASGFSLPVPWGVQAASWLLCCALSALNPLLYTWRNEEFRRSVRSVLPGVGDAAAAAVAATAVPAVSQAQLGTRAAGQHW

SMILES | EC50 (numeric value printed) | EC50 (class symbol X)
CCC(CC)COc1ccc([C@H](CO)NC(=O)[C@H]2C[C@@H]2c2ccccc2)c(OC)c1 [Example 3, (1S,2S)-2-Phenyl-cyclopropanecarboxylic acid {(R)-1-[4-(2-ethyl-butoxy)-2-methoxy-phenyl]-2-hydroxy-ethyl}-amide] |  | 62 to 130 nM
CC[C@H](C)COc1ccc([C@H](CO)NC(=O)[C@H]2C[C@@H]2c2cccs2)cc1 [Example 6, (1S,2S)-2-Thiophen-2-yl-cyclopropanecarboxylic acid {(R)-2-hydroxy-1-[4-((S)-2-methyl-butoxy)-phenyl]-ethyl}-amide] | 124 nM | 
COc1cc(-c2ccc(C)cc2)ccc1[C@H](CO)NC(=O)[C@H]1C[C@@H]1c1cccs1 [Example 12, (1S,2S)-2-Thiophen-2-yl-cyclopropanecarboxylic acid [(R)-2-hydroxy-1-(3-methoxy-4′-methyl-biphenyl-4-yl)-ethyl]-amide] |  | 62 to 130 nM

More lines, main results first:

EC50 (numeric value printed) | SMILES | EC50 (class symbol X)
81 nM | Cc1ccc(-c2ccc([C@H](CO)NC(=O)C3CC3c3cccs3)cc2)cc1 (stereo in doubt) [Example 5, (1S,2S)-2-Thiophen-2-yl-cyclopropanecarboxylic acid [(R)-2-hydroxy-1-(4′-methyl-biphenyl-4-yl)-ethyl]-amide] | 
74 nM | CCCC(C)COc1ccc([C@H](CO)NC(=O)[C@H]2C[C@@H]2c2cccs2)cc1 (stereo partly drawn) [Example 15, (1S,2S)-2-Thiophen-2-yl-cyclopropanecarboxylic acid {(R)-2-hydroxy-1-[4-(2-methyl-pentyloxy)-phenyl]-ethyl}-amide] | 
